What was measured:
Test in all cases: Cell monolayer growth assay (MTT)
[1] = system: 22Rv1 cells; format: cell-based, human; details: enzalutamide up to 20 uM
Experimental: Twenty four hours after plating the 22Rv1 cells, they were treated with the indicated concentrations of KCI807 (FIG. 4C) or with the indicated concentrations of enzalutamide (ENZ) (FIG. 4D).
Twenty four hours after plating the cells, they were treated with the indicated concentrations of the compound.
FIG. 16D is a graph showing the effect of 5′-Fluoro-5,3′-Dihydroxyflavone at various concentrations on growth of 22Rv1 cells.
(§1) Cells were trypsinized and 3000-4000 cells/well were seeded in 96-well plates coated with poly-D-lysine. The cells were seeded in phenol red-free medium supplemented with 10% FBS, 100 units/ml penicillin, 100 μg/ml streptomycin, 2 mM L-glutamine mixture and sodium pyruvate (1 mM) for LNCaP cells and phenol red-free medium supplemented with 10% FBS, 100 units/ml penicillin, 100 μg/ml streptomycin and 2 mM L-glutamine mixture for VCaP, 22Rv1, DU145, HeLa, HEK293 and H1650 cells. The cells were grown at 37° C. in 5% CO2. Twenty four hours after seeding in the 96-well plates, the cells were treated with the indicated concentration of KCI807 or DMSO (vehicle). The cells were re-treated on Day 3 by removing half the volume of medium and replacing it with fresh treated medium. Cell viability was determined using the MTT assay from day zero until day five. MTT (10 μL, 5 mg/mL) was added to each well and incubated for 2h at 37° C. The formazan crystal sediments were dissolved in 100 μL of DMSO, and the absorbance at 570 nm was measured using the BioTek Synergy 2 Microplate Reader (BioTek, Winooski, Vt.). The assay was conducted in sextuplicate wells and values were normalized to day zero.

[2] = system: LNCaP cells; format: cell-based; details: enzalutamide up to 20 uM
Experimental: as §1, with “Twenty four hours after plating the LNCaP cells, they were treated with the indicated concentrations of KCI807 (FIG. 4E) or with the indicated concentrations of enzalutamide (ENZ) (FIG. 4F). […] Cells” for “Cells”

[3] = system: VCaP cells; format: cell-based
Experimental: as §1, with “Twenty four hours after plating the VCaP cells, they were treated with the indicated concentrations of KCI807 (FIG. 4G) or with the indicated concentrations of enzalutamide (ENZ) (FIG. 4H). […] Cells” for “Cells”

Row | Compound | growth inhibition of 22Rv1 cells [1] | growth inhibition of LNCaP cells [2] | growth inhibition of VCaP cells [3]
1 | O=c1cc(-c2cccc(O)c2)oc2cccc(O)c12 [KCI807, 5,3′-dihydroxyflavone] | completely inhibited cell growth | completely inhibited cell growth | most sensitive
2 | CNC(=O)c1ccc(N2C(=S)N(c3ccc(C#N)c(C(F)(F)F)c3)C(=O)C2(C)C)cc1F [enzalutamide] | only showed partial effects | only showed partial effects | most sensitive
3 | O=c1cc(-c2cc(O)cc(F)c2)oc2cccc(O)c12 [5′-fluoro-5,3′-dihydroxyflavone] | inhibited growth | inhibited growth | inhibited growth
